Experiment: xn = mol fraction of the nth substance listed
Conditions: 100 kPa

CCCC[P+](c1ccccc1)(c1ccccc1)c1ccccc1.[Br-] + OCCO
x2 = 0.9756
Conditions	viscosity [mPa·s]
303.15 K	21.6
313.15 K	18.5
323.15 K	15.5
333.15 K	14
343.15 K	12
353.15 K	10.5

C=C[n+]1ccn(CC(N)=O)c1.O=S(=O)([N-]S(=O)(=O)C(F)(F)F)C(F)(F)F + CC#N
Conditions	electrical conductivity [S/m]	viscosity [mPa·s]
298.15 K, x1 = 0.01	1.29	0.67
303.15 K, x1 = 0.07	3.51	–
303.15 K, x1 = 0.1	3.28	10
303.15 K, x1 = 0.2	1.77	–
303.15 K, x1 = 0.201	–	69
303.15 K, x1 = 0.393	0.48	–
303.15 K, x1 = 0.4011	–	680
308.15 K, x1 = 0.01	1.4	0.61
308.15 K, x1 = 0.02	2.78	–
308.15 K, x1 = 0.201	–	60
308.15 K, x1 = 1	0.03	–
313.15 K, x1 = 0.1	3.8	8.2
313.15 K, x1 = 0.4011	–	424
318.15 K, x1 = 0.01	1.53	0.55
318.15 K, x1 = 0.047	3.87	–
318.15 K, x1 = 0.2	2.38	–
323.15 K, x1 = 0.08	4.39	–
323.15 K, x1 = 0.2	2.58	–
323.15 K, x1 = 0.3026	–	119
323.15 K, x1 = 1	0.1	–
328.15 K, x1 = 0.07	4.58	–
328.15 K, x1 = 0.1	4.49	6.6
328.15 K, x1 = 0.4011	–	233
328.15 K, x1 = 1	0.14	–
333.15 K, x1 = 0.047	4.34	–
333.15 K, x1 = 0.201	–	32.7

From the CheMixHub ionic liquid set
